Tested on: rat
Experiment: CFA-Induced Paw Radiant Heat Hypersensitivity
Type: in vivo
Conditions: CFA thermal hypersensitivity, 30 mg/kg p.o., HPβCD, group mean values, last time point 180 or 300 min
Description: Each rat was placed in a test chamber on a warm glass surface and allowed to acclimate for approximately 10 min. A radiant thermal stimulus (beam of light) was then focused through the glass onto the plantar surface of each hind paw in turn. The thermal stimulus was automatically shut off by a photoelectric relay when the paw was moved or when the cut-off time was reached (20 sec for radiant heat at ˜5 amps). An initial (baseline) response latency to the thermal stimulus was recorded for each animal prior to the injection of complete Freund's adjuvant (CFA). 24 h following intraplantar CFA injection, the response latency of the animal to the thermal stimulus was then re-evaluated and compared to the animal's baseline response time. […] Post-compound treatment withdrawal latencies were assessed at fixed time intervals, typically 30, 60, 120, 180, and 300 min.
The percent reversal (% R) of hypersensitivity was calculated in one of two different ways: 1) using group mean values or 2) using individual animal values. […]
Method 1. For all compounds, the % R of hypersensitivity was calculated using the mean value for groups of animals at each time point according to the following formula: % reversal=[(group treatment response−group CFA response)/(group baseline response−group CFA response)]×100 Results are given for the maximum % reversal observed for each compound at any time point tested. […]

Structure (SMILES): O=C(c1ccc(-c2cccc(C(F)(F)F)c2)c(Cl)c1)N1CC(N2CCN(C(=O)c3cscn3)CC2)C1 [Cpd 1102]
- Method 1: peak % reversal: 38%

Source: US8697684B2, “Azetidinyl diamides as monoacylglycerol lipase inhibitors” (Janssen Pharmaceutica NV, priority 2009, dated 2014)
